{"source": "ChEMBL document CHEMBL4028852", "about": "“Design of a Chemical Probe for the Bromodomain and Plant Homeodomain Finger-Containing (BRPF) Family of Proteins” (J Med Chem, 2017)", "key": {"[1]": {"molecular_target": "T1, Bromodomain-containing protein 1 (Homo sapiens, UniProt O95696)", "T1 sequence (O95696 whole entry)": "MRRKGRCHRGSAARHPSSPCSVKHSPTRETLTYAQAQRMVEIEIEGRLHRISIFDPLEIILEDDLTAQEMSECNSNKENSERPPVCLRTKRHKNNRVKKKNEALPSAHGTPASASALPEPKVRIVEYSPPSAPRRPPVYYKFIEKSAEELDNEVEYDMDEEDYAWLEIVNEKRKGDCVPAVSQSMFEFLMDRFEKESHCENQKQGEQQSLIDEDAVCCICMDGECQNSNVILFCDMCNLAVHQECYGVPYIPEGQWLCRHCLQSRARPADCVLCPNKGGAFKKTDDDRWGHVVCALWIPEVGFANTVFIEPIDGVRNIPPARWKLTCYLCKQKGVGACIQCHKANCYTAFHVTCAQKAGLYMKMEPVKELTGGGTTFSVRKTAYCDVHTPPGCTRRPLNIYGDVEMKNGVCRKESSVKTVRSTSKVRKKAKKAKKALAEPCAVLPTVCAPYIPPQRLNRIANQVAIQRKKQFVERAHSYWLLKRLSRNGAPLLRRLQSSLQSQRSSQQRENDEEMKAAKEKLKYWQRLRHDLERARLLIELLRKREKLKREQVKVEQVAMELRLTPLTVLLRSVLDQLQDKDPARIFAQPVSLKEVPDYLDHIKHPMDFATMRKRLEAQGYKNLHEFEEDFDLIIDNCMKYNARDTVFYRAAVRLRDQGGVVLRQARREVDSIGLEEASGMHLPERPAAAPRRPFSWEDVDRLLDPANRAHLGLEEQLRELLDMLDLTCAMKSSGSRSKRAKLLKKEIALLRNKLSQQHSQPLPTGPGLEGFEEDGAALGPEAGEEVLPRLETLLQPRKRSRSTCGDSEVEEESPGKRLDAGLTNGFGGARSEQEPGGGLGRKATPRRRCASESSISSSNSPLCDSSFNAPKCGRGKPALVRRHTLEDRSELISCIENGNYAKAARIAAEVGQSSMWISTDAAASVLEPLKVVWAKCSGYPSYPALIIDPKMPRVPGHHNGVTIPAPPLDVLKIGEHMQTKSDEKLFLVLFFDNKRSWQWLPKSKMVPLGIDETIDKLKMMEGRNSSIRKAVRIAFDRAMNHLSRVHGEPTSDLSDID", "assay": "Inhibition of His-tagged BRPF2 (unknown origin) after 30 mins by alphaScreen assay"}, "[2]": {"molecular_target": "T2, Transcription intermediary factor 1-alpha (Homo sapiens, UniProt O15164)", "T2 sequence (O15164 whole entry)": "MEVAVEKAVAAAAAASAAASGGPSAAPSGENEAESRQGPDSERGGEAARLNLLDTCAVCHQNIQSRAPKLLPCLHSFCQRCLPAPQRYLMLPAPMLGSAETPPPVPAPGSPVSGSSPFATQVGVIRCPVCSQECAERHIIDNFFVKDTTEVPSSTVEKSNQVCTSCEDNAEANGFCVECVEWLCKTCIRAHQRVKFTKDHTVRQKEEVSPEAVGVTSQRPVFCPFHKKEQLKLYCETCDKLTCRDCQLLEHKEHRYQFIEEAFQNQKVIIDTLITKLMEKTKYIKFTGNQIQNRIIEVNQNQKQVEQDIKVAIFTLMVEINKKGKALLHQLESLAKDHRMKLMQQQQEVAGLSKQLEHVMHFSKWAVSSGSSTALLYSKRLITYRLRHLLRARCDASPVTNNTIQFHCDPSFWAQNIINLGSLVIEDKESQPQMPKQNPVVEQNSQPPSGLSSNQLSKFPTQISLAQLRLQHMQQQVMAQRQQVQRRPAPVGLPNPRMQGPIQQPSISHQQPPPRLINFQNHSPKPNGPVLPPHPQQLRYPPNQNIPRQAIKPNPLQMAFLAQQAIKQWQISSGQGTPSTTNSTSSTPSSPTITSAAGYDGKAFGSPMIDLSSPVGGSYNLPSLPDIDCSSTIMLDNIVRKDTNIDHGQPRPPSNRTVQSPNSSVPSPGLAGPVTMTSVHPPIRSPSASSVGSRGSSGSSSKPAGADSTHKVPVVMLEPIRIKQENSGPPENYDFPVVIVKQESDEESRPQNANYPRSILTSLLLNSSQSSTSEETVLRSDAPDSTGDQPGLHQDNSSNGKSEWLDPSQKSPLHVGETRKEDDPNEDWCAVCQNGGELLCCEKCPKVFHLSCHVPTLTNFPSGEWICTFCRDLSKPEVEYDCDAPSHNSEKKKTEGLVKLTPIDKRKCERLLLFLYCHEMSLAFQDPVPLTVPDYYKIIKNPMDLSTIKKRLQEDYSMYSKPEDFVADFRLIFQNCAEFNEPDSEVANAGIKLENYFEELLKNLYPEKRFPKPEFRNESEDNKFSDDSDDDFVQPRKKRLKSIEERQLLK", "assay": "Inhibition of TRIM24 (unknown origin) using tetra-acetylated histone 4/ mono-acetylated K14 histone 3 as substrate after 30 mins by alphascreen assay"}, "[3]": {"assay": "Aqueous solubility of compound", "format": "physicochemical", "conditions": "buffer"}, "[4]": {"assay": "Inhibition of cell proliferation of human HRA19 cells after 72 hrs by MTS assay", "format": "functional", "conditions": "HRA19, 72 h"}, "[5]": {"assay": "Elimination half life in CD1 mouse at 1 mg/kg, iv by UPLC-MS/MS analysis", "format": "ADME, organism-based", "conditions": "in vivo, read-out: beta t1/2 (converted)"}}, "data": [{"smiles": "COc1cc(C#N)ccc1S(=O)(=O)Nc1ccc2c(c1)cc(C)c(=O)n2C", "values": [{"measurement": "IC50", "setting": "[1]", "value": 0.619, "unit": "µM"}, {"measurement": "IC50", "setting": "[2]", "value": "> 10", "unit": "µM"}, {"measurement": "solubility", "setting": "[3]", "value": 100, "unit": "µM"}, {"measurement": "GI50", "setting": "[4]", "value": 15.6, "unit": "µM"}, {"measurement": "half-life", "setting": "[5]", "value": 1.2, "unit": "h"}]}]}
